According to US20250002489A1, “BIFUNCTIONAL COMPOUNDS FOR DEGRADING ITK VIA UBIQUITIN PROTEOSOME PATHWAY” (NURIX THERAPEUTICS, INC., priority 2021, published 2025):

Target: T1, ITK (Jurkat or Molt4 cells) (Homo sapiens, UniProt Q08881)
T1 construct: either human Jurkat (Clone E6-1 ATCC TIB-152) or Motl4 (ATCC CRL-1552), were plated; endogenous in cells; host or cells: Jurkat Clone E6-1 (ATCC TIB-152) or Molt4 (ATCC CRL-1552)
T1 sequence (Q08881 1-620): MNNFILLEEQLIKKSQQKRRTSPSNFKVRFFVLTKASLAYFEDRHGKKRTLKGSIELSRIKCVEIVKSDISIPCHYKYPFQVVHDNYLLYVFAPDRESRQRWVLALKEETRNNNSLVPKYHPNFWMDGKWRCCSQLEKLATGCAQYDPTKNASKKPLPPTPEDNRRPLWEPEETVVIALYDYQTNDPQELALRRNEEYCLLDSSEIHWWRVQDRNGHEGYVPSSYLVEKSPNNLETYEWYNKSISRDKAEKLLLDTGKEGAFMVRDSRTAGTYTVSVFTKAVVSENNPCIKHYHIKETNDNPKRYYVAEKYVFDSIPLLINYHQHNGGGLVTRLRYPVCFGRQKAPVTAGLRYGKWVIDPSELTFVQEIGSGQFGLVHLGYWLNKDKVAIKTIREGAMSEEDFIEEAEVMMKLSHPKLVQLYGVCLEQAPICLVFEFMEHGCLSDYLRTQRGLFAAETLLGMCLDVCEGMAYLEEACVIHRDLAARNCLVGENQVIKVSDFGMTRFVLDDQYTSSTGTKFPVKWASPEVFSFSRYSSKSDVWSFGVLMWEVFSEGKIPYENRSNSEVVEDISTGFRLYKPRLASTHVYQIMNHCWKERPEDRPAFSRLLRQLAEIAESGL
Assay: ITK Degradation MSD (Meso Scale Discovery) Assay
Format: cell-based
Settings: 4 or 6 hrs incubation; for DC50: best fit IC50 used as DC50
Procedure: Compound dilution series (7-point, 5-fold dilutions in DMSO, rows B—H with replicate in Column 1/2, 3/4, 5/6, 7, and 8 at 2000× the final required concentrations were prepared in 96-well plate (Falcon, cat. no. 353077). Row A, Column 1-8 were control DMSO. The 2000× solutions ranged from 2 mM to 128 nM (final assay concentration range 1 μM to […]). The 2000×solutions were added to cells in 10 μL volume, for a final DMSO concentration of 0.5% and final assay compound concentration of 1×. For the cells, either human Jurkat (Clone E6-1 ATCC TIB-152) or Motl4 (ATCC CRL-1552), were plated at 1×10^6 cells/mL, 100 μL/well ([…]) in complete RPMI (10% FBS, 1% L-glutamine). The cells were incubated with compounds 26-29 for 4 or 6 hrs at 32° C./6% CO2.
Following incubation, plates were centrifuged at 1200 rpm for 5 min. Supernatant was removed and 50 μL of cell lysis buffer (MSD Tris lysis buffer (R60TX), complete Mini EDTA-free protease inhibitor (Sigma 11836170001), Protease Inhibitor Cocktail (Sigma, P2714), Phosphatase Inhibitor Cocktail 2 and 3 (Sigma, P5726 and P0044), Benzonase (Sigma, E1014)) was added to each well. Plate was sealed and shook at 4° C. for 30 min. Plate was centrifuged and 45 μL was removed for plate assay.
Assay plate preparation: Meso Scale Discovery (MSD) multi-array sm spot 96-well plates (Goat anti-Rabbit L^45-RA), were blocked with 3% BSA blocking buffer (3% Bovine Serum Albumin (Sigma A3059)+TBS 0.2% Tween-20) for one hour with gentle rocking at room temperature. Plate was then washed with 200 μL of 1×TBST (TBS 0.2% Tween-20) three times. After the last wash, all liquid was removed and 50 μL per well of capture antibody (abcam ITK Y402-ab32507) was added to plate at a 1:1000 dilution in blocking buffer (see above). Plate was sealed and rocked at room temperature for 2 hrs. Plate was then washed three times with 200 μL of 1×TBST. After the last wash, all liquid was removed and 45 μL of cell lysate (from above) was added to plate. Plate was sealed and rocked overnight at 4° C. The next day, cell lysates were removed, and assay plate was washed three times with 200 μL of 1×TBST. After the last wash, liquid was removed and detection antibody (CST ITK (2F12) #2380) was added at 50 μL per well at a dilution of 1:1000 in blocking buffer. Plate was sealed and rocked at room temperature for 2 hrs. Plate was washed three times with 200 μL of 1×TBST. After the last wash, all liquid was removed, MSD […] sulfo tag (R32AC-1) was diluted to 1:1000 in blocking buffer. 50 μL was added to each well on the plate. Plate was sealed and incubated at room temperature for one hour. Plate was washed three times with 200 μL of 1×TBST. After last wash, all liquid was removed and 150 μL of 1×MSD Read Buffer T (R92PC) was then added to each well for ECL read out.
For reading ECL signal, plate was read on a Meso Scale Discovery (MSD) MESO Sector S 600 plate reader. Percent ITK was then calculated as described below.
Percent ITK remaining per sample was calculated as follows: […]
Using Graphpad Prism, % ITK remaining values were plotted as a function of compound concentration. To determine DC50 and Dmax values, resulting curves were fit to the Prism curve-fitting equation “log(inhibitor) vs response−Variable slope (four parameters)” (reported best fit value IC50 used as DC50).

SMILES | Dmax [%] | DC50 [nM]
Cc1ncsc1-c1ccc([C@H](C)NC(=O)[C@@H]2C[C@@H](O)CN2C(=O)[C@@H](NC(=O)c2ccc(N3CCC(C(=O)N4CC([C@@H](c5ccccc5)n5cc(NC(=O)c6n[nH]c7c6C[C@@H]6C(F)(F)[C@]6(C)C7)cn5)C4)CC3)cn2)C(C)(C)C)cc1 [Compound 31, (4aS,5aR)-5,5-difluoro-N-(1-((S)-(1-(1-(6-(((S)-1-((2S,4R)-4-hydroxy-2-(((S)-1-(4-(4-methylthiazol-5-yl)phenyl)ethyl)carbamoyl)pyrrolidin-1-yl)-3,3-dimethyl-1-oxobutan-2-yl)carbamoyl)pyridin-3-yl)piperidine-4-carbonyl)azetidin-3-yl)(phenyl)methyl)-1H-pyrazol-4-yl)-5a-methyl-1,4,4a,5,5a,6-hexahydrocyclopropa[f]indazole-3-carboxamide] | 88.8 | 30.1
Cc1ncsc1-c1ccc(CNC(=O)[C@@H]2C[C@@H](O)CN2C(=O)[C@@H](NC(=O)CCOCCOCCOCCOCCOCCOCCC(=O)N2CC([C@@H](c3ccccc3)n3cc(NC(=O)c4n[nH]c5c4C[C@@H]4C(F)(F)[C@]4(C)C5)cn3)C2)C(C)(C)C)cc1 [Compound 14, (4aS,5aR)-5,5-difluoro-N-(1-((S)-(1-((S)-24-((2S,4R)-4-hydroxy-2-((4-(4-methylthiazol-5-yl)benzyl)carbamoyl)pyrrolidine-1-carbonyl)-25,25-dimethyl-22-oxo-4,7,10,13,16,19-hexaoxa-23-azahexacosanoyl)azetidin-3-yl)(phenyl)methyl)-1H-pyrazol-4-yl)-5a-methyl-1,4,4a,5,5a,6-hexahydrocyclopropa[f]indazole-3-carboxamide] |  | 134
CN[C@@H](C)C(=O)N[C@H](C(=O)N1CCC[C@H]1c1nc(C(=O)c2cccc(OCCCCCN3CC([C@@H](c4ccccc4)n4cc(NC(=O)c5n[nH]c6c5C[C@@H]5C(F)(F)[C@]5(C)C6)cn4)C3)c2)cs1)C1CCCCC1 [Compound 10, (4aS,5aR)—N-(1-((S)-(1-(5-(3-(2-((S)-1-((S)-2-cyclohexyl-2-((S)-2-(methylamino)propanamido)acetyl)pyrrolidin-2-yl)thiazole-4-carbonyl)phenoxy)pentyl)azetidin-3-yl)(phenyl)methyl)-1H-pyrazol-4-yl)-5,5-difluoro-5a-methyl-1,4,4a,5,5a,6-hexahydrocyclopropa[f]indazole-3-carboxamide] |  | 22.2
Cc1ncsc1-c1ccc([C@H](C)NC(=O)[C@@H]2C[C@@H](O)CN2C(=O)[C@@H](NC(=O)c2ccc(N3CCC(CC(=O)N4CC([C@@H](c5ccccc5)n5cc(NC(=O)c6n[nH]c7c6C[C@@H]6C(F)(F)[C@]6(C)C7)cn5)C4)CC3)cn2)C(C)(C)C)cc1 [Compound 23, (4aS,5aR)-5,5-difluoro-N-(1-((S)-(1-(2-(1-(6-(((S)-1-((2S,4R)-4-hydroxy-2-(((S)-1-(4-(4-methylthiazol-5-yl)phenyl)ethyl)carbamoyl)pyrrolidin-1-yl)-3,3-dimethyl-1-oxobutan-2-yl)carbamoyl)pyridin-3-yl)piperidin-4-yl)acetyl)azetidin-3-yl)(phenyl)methyl)-1H-pyrazol-4-yl)-5a-methyl-1,4,4a,5,5a,6-hexahydrocyclopropa[f]indazole-3-carboxamide] | 91 | 13.3
CN[C@@H](C)C(=O)N[C@H](C(=O)N1C[C@@H](NC(=O)CCOCCOCCOCCOCCC(=O)N2CC([C@@H](c3ccccc3)n3cc(NC(=O)c4n[nH]c5c4C[C@@H]4C(F)(F)[C@]4(C)C5)cn3)C2)C[C@H]1C(=O)N[C@@H]1CCCc2ccccc21)C1CCCCC1 [Compound 2, (4aS,5aR)—N-(1-((S)-(1-(16-(((3S,5S)-1-((S)-2-cyclohexyl-2-((S)-2-(methylamino)propanamido)acetyl)-5-(((R)-1,2,3,4-tetrahydronaphthalen-1-yl)carbamoyl)pyrrolidin-3-yl)amino)-16-oxo-4,7,10,13-tetraoxahexadecanoyl)azetidin-3-yl)(phenyl)methyl)-1H-pyrazol-4-yl)-5,5-difluoro-5a-methyl-1,4,4a,5,5a,6-hexahydrocyclopropa[f]indazole-3-carboxamide] |  | 79.7
Cc1ncsc1-c1ccc(CNC(=O)[C@@H]2C[C@@H](O)CN2C(=O)[C@@H](NC(=O)CCOCCC(=O)N2CC([C@@H](c3ccccc3)n3cc(NC(=O)c4n[nH]c5c4C[C@@H]4C(F)(F)[C@]4(C)C5)cn3)C2)C(C)(C)C)cc1 [Compound 16, (4aS,5aR)-5,5-difluoro-N-(1-((S)-(1-(3-(3-(((S)-1-((2S,4R)-4-hydroxy-2-((4-(4-methylthiazol-5-yl)benzyl)carbamoyl)pyrrolidin-1-yl)-3,3-dimethyl-1-oxobutan-2-yl)amino)-3-oxopropoxy)propanoyl)azetidin-3-yl)(phenyl)methyl)-1H-pyrazol-4-yl)-5a-methyl-1,4,4a,5,5a,6-hexahydrocyclopropafindazole-3-carboxamide] |  | 479

More lines, in order of falling DC50, values ahead:

Dmax [%] | DC50 [nM] | SMILES
 | 52.9 | CN[C@@H](C)C(=O)N[C@H](C(=O)N1CCC[C@H]1c1nc(C(=O)c2cccc(OCCCCCCN3CC([C@@H](c4ccccc4)n4cc(NC(=O)c5n[nH]c6c5C[C@@H]5C(F)(F)[C@]5(C)C6)cn4)C3)c2)cs1)C1CCCCC1 [Compound 9, (4aS,5aR)—N-(1-((S)-(1-(6-(3-(2-((S)-1-((S)-2-cyclohexyl-2-((S)-2-(methylamino)propanamido)acetyl)pyrrolidin-2-yl)thiazole-4-carbonyl)phenoxy)hexyl)azetidin-3-yl)(phenyl)methyl)-1H-pyrazol-4-yl)-5,5-difluoro-5a-methyl-1,4,4a,5,5a,6-hexahydrocyclopropa[f]indazole-3-carboxamide]
95.9 | 2.6 | Cc1ncsc1-c1ccc(CNC(=O)[C@@H]2C[C@@H](O)CN2C(=O)[C@@H](NC(=O)C2(F)CC2)C(C)(C)C)c(OCCOCCOCCOCCC(=O)N2CC([C@@H](c3ccccc3)n3cc(NC(=O)c4n[nH]c5c4C[C@@H]4C(F)(F)[C@]4(C)C5)cn3)C2)c1 [Compound 19, (4aS,5aR)-5,5-difluoro-N-(1-((S)-(1-(3-(2-(2-(2-(2-(((2S,4R)-1-((S)-2-(1-fluorocyclopropane-1-carboxamido)-3,3-dimethylbutanoyl)-4-hydroxypyrrolidine-2-carboxamido)methyl)-5-(4-methylthiazol-5-yl)phenoxy)ethoxy)ethoxy)ethoxy)propanoyl)azetidin-3-yl)(phenyl)methyl)-1H-pyrazol-4-yl)-5a-methyl-1,4,4a,5,5a,6-hexahydrocyclopropa[f]indazole-3-carboxamide]
